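These data come from cells grown in 96-well plates and exposed to compound for 48 hours at five concentrations. TGI denotes the concentration required for complete inhibition of growth.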
Legend:
Test in all cases: NCI tumour cell line growth inhibition, 48 h
786-0 renal = system: 786-0 renal
A498 renal = system: A498 renal
A549 NSCLC = system: A549 NSCLC
ACHN renal = system: ACHN renal
CAKI-1 renal = system: CAKI-1 renal
COLO 205 colon = system: COLO 205 colon
DLD-1 colon = system: DLD-1 colon
DMS 114 small cell lung = system: DMS 114 small cell lung
DMS 273 small cell lung = system: DMS 273 small cell lung
EKVX NSCLC = system: EKVX NSCLC
HCC-2998 colon = system: HCC-2998 colon
HCT-116 colon = system: HCT-116 colon
HCT-15 colon = system: HCT-15 colon
HOP-18 NSCLC = system: HOP-18 NSCLC
HOP-62 NSCLC = system: HOP-62 NSCLC
HOP-92 NSCLC = system: HOP-92 NSCLC
HT29 colon = system: HT29 colon
IGROV1 ovarian = system: IGROV1 ovarian
KM12 colon = system: KM12 colon
KM20L2 colon = system: KM20L2 colon
LOX IMVI melanoma = system: LOX IMVI melanoma
LXFL 529 NSCLC = system: LXFL 529 NSCLC
M14 melanoma = system: M14 melanoma
M19-MEL melanoma = system: M19-MEL melanoma
MALME-3M melanoma = system: MALME-3M melanoma
MOLT-4 leukemia = system: MOLT-4 leukemia
NCI-H226 lung = system: NCI-H226 lung
NCI-H23 lung = system: NCI-H23 lung
NCI-H460 lung = system: NCI-H460 lung
NCI-H522 lung = system: NCI-H522 lung
OVCAR-3 ovarian = system: OVCAR-3 ovarian
OVCAR-4 ovarian = system: OVCAR-4 ovarian
OVCAR-5 ovarian = system: OVCAR-5 ovarian
OVCAR-8 ovarian = system: OVCAR-8 ovarian
RXF 393 renal = system: RXF 393 renal
RXF-631 renal = system: RXF-631 renal
SF-268 CNS = system: SF-268 CNS
SF-295 CNS = system: SF-295 CNS
SF-539 CNS = system: SF-539 CNS
SK-MEL-2 melanoma = system: SK-MEL-2 melanoma
SK-MEL-28 melanoma = system: SK-MEL-28 melanoma
SK-MEL-5 melanoma = system: SK-MEL-5 melanoma
SN12C renal = system: SN12C renal
SNB-19 CNS = system: SNB-19 CNS
SNB-75 CNS = system: SNB-75 CNS
SNB-78 CNS = system: SNB-78 CNS
SW-620 colon = system: SW-620 colon
TK-10 renal = system: TK-10 renal
U251 CNS = system: U251 CNS
UACC-257 melanoma = system: UACC-257 melanoma
UACC-62 melanoma = system: UACC-62 melanoma
UO-31 renal = system: UO-31 renal
XF 498 CNS = system: XF 498 CNS

SMILES: CCOC(=O)CC1=Nc2ccccc2SC1
- TGI (786-0 renal): > 100 µM
- TGI (A498 renal): > 100 µM
- TGI (A549 NSCLC): > 100 µM
- TGI (ACHN renal): > 100 µM
- TGI (CAKI-1 renal): > 100 µM
- TGI (COLO 205 colon): > 100 µM
- TGI (DLD-1 colon): > 100 µM
- TGI (DMS 114 small cell lung): > 100 µM
- TGI (DMS 273 small cell lung): > 100 µM
- TGI (EKVX NSCLC): > 100 µM
- TGI (HCC-2998 colon): > 100 µM
- TGI (HCT-116 colon): > 100 µM
- TGI (HCT-15 colon): > 100 µM
- TGI (HOP-18 NSCLC): > 100 µM
- TGI (HOP-62 NSCLC): > 100 µM
- TGI (HOP-92 NSCLC): > 100 µM
- TGI (HT29 colon): > 100 µM
- TGI (IGROV1 ovarian): > 100 µM
- TGI (KM12 colon): > 100 µM
- TGI (KM20L2 colon): > 100 µM
- TGI (LOX IMVI melanoma): > 100 µM
- TGI (LXFL 529 NSCLC): > 100 µM
- TGI (M14 melanoma): > 100 µM
- TGI (M19-MEL melanoma): > 100 µM
- TGI (MALME-3M melanoma): > 100 µM
- TGI (MOLT-4 leukemia): > 100 µM
- TGI (NCI-H226 lung): > 100 µM
- TGI (NCI-H23 lung): > 100 µM
- TGI (NCI-H460 lung): > 100 µM
- TGI (NCI-H522 lung): > 100 µM
- TGI (OVCAR-3 ovarian): > 100 µM
- TGI (OVCAR-4 ovarian): > 100 µM
- TGI (OVCAR-5 ovarian): > 100 µM
- TGI (OVCAR-8 ovarian): > 100 µM
- TGI (RXF 393 renal): > 100 µM
- TGI (RXF-631 renal): > 100 µM
- TGI (SF-268 CNS): 1.56 µM
- TGI (SF-295 CNS): > 100 µM
- TGI (SF-539 CNS): > 100 µM
- TGI (SK-MEL-2 melanoma): > 100 µM
- TGI (SK-MEL-28 melanoma): 2.73 µM
- TGI (SK-MEL-5 melanoma): > 100 µM
- TGI (SN12C renal): > 100 µM
- TGI (SNB-19 CNS): > 100 µM
- TGI (SNB-75 CNS): > 100 µM
- TGI (SNB-78 CNS): > 100 µM
- TGI (SW-620 colon): > 100 µM
- TGI (TK-10 renal): > 100 µM
- TGI (U251 CNS): > 100 µM
- TGI (UACC-257 melanoma): > 100 µM
- TGI (UACC-62 melanoma): > 100 µM
- TGI (UO-31 renal): > 100 µM
- TGI (XF 498 CNS): > 100 µM
